Values of other authors, collected in patent US20240261224A1, “FORMULATION OF A PAN-JAK INHIBITOR” (KINASET THERAPEUTICS, INC., priority 2022, published 2024).
Where two headings read alike, the source gives them in different places. Marks after values point to notes of the source that are not given here.

Columns and labels:
[1] = tested on: fractional exhaled nitric oxide (FeNO); details: cited from earlier work
[2] = marketed DPI; cited from earlier work

SMILES	Mean placebo-corrected FeNO reduction ([1]; 1.0 mg QD, 1 capsule per dose, an increase in FeNO was observed) [%*]	Mean placebo-corrected FeNO reduction ([1]; 4.0 mg QD, 4 capsules per dose) [%]	Mean placebo-corrected FeNO reduction ([1]; 15.0 mg BID, 30 capsules per dose) [%]	Mean placebo-corrected FeNO reduction ([1]; 15.0 mg QD, 15 capsules per dose) [%]	MMAD (μm) [2]
CN(CCC#N)C1CCN(C(=O)Cn2cc(NC(=O)c3cnn4cccnc34)c(-c3cc(Cl)ccc3OC(F)F)n2)CC1 [GDC-0214]	0.4	−6.5	−42	−23	–
CCC(=O)O[C@]1(C(=O)SCF)[C@H](C)C[C@H]2[C@@H]3C[C@H](F)C4=CC(=O)C=C[C@]4(C)[C@@]3(F)[C@@H](O)C[C@@]21C [fluticasone propionate]	–	–	–	–	6-7 μm
